Read-outs that look alike come from different tables or passages of the source.
Tests used:
[1] = system: NF-κB; test: EMSA of NF-κB DNA-binding activity in TPA-stimulated Jurkat T cells; type: cell-based, Human; conditions: for NF-κB inhibition (in words): TPA-stimulated, EMSA
Description: (§1) Human lymphoblastoid Jurkat T cells were grown at 37° C. in a 5% CO2 atmosphere in RPM1 1640 medium (GIBCO BRL, Gaithersburg, Md., United States of America) supplemented with 10% fetal calf serum (FCS, Hyclone Europe Ltd, United Kingdom), 2 mM glutamine and antibiotics according to the method described by A. Rossi et al.^48 The test compound was stored as a 100% ethanolic stock solution (100 mM) or in dimethylsulfoxide (100 mM) and diluted to the appropriate concentration in culture medium at the time of use. Cells were treated with different concentrations of test compound for 1 hour and then stimulated with 12-O-tetradecanoylphorbol-13-acetate (TPA, 25 ng/ml), which is a strong inducer of NF-κB. Control cells received an equal amount of control diluent. After 3 hours, whole-cell extracts were prepared and subjected to analysis of DNA-binding activity by EMSA (Electrophoretic Mobility Shift Assay) for detection of HSF or NF-κB activation, according to the method described by A. Rossi et al.^48
(§2) Specificity of protein-DNA complexes was verified by immunoreactivity with polyclonal antibodies specific for p65 (Rel A) or for HSF-1, for NF-κB and HSF respectively. Quantitative evaluation of NF-κB- and HSF-DNA complex formation was determined by Molecular Dynamics PhosphorImager (MDP) analysis and was expressed in arbitrary units, as described by A. Rossi et al.^49 The results for (−)-Δ^12,14-15-deoxy-PG-J2 are shown in FIG. 1.

[2] = system: parainfluenza Sendai virus (SV); test: Sendai virus replication in 37RC cells, virus yield by HAU titration; type: cell-based; conditions: for IC50: read-out: ID50 (50% inhibitory dose/concentration)
Description: (§3) Monkey kidney 37RC cells were grown at 37° C. under the conditions described above for human lymphoblastoid Jurkat T cells. The parainfluenza Sendai virus (SV) was grown in the allantoic cavity of 10 day-old embryonated eggs. Viral titre was expressed in haemagglutinating units (HAU) per ml; […]. Virus yield at 24 hours after infection was determined in the supernatant of infected cells by HAU titration.
(§4) The ID50 (the 50% inhibitory dose/concentration) value at 24 hours and the TD100 (the dose or concentration at which a tested compound is 100% toxic to uninfected cells, determined visually by microscopy) for both (−)-Δ^12,14-15-deoxy-PG-J2 and for compound CTC-150 were measured and the following results were obtained.

[3] = system: Monkey kidney 37RC cells; type: cell-based
Description: as §3, §4

[4] = system: HSF; test: EMSA of HSF DNA-binding activity in TPA-stimulated Jurkat T cells; type: cell-based, Human; conditions: 1 hour pre-treatment, TPA 25 ng/ml, extracts after 3 hours
Description: as §1, with “After 3 hours, whole-cell extracts were prepared and subjected to analysis of DNA-binding activity by EMSA (Electrophoretic Mobility Shift Assay) for detection of HSF or NF-κB activation, according to the method described by A. Rossi et al.^48” left out
as §2

SMILES | NF-κB inhibition (in words) [1] | inhibition of Sendai virus replication (in words) ([2]; 37RC cells, virus yield at 24 hours) | IC50 ([2]; virus yield at 24 hours after infection, 37RC cells, 5 HAU/10^5 cells) | TD100 (concentration at which compound is 100% toxic to uninfected cells) ([3]; uninfected 37RC cells, visually by microscopy) | concentration required to give an HSF activation to 200% of its original level [4] | IC50 ([1]; Homo sapiens, 1 hour pre-treatment, TPA 25 ng/ml, extracts after 3 hours, read-out: concentration required to give an NF-κB inhibition to 50% of its original level (IC50)) | IC50 ([2]; Respirovirus muris, 24 h) | antiviral activity relative to (−)-Δ^12,14-15-deoxy-PG-J2 (times more active) ([2]; ratio of ID50 values, Sendai virus in 37RC cells) | TD100 (concentration at which compound is 100% toxic to uninfected cells) ([3]; monkey)
CCCCC/C=C/C=C1/C(=O)C=CC1C/C=C\CCCC(=O)O (stereo not drawn) [(−)-Δ^12,14-15-deoxy-PG-J2, reference compound] | potent inhibitor of NF-κB | potent inhibitor of Sendai virus replication | 3000 nM | 50 µM |  |  |  |  | 
CC1C=CC(=O)/C1=C/c1ccccc1 (stereo not shown) [CTC-150, 4-methyl-5-[1-phenyl-meth-(E)-ylidene]-cyclopent-2-enone] | potent inhibitor of NF-κB |  |  |  | 0.02 µM | 7 µM | 700 nM | over 4 | >50 µM
